# Experimental data taken from US20040192641A1, “Special preparation of anticancer drugs made by novel nanotechnology” (priority 2003, published 2004).
# Marks after values point to notes of the source that are not given here.
# Tests used:
# tyrosine kinase (TK) = assay: Tyrosine kinase (TK) activity of HL-60 leukemia cells; assay type: cell-based, human; details: 24 hours
# Protocol: H-60 leukemia cells were plated at a density of 5×10^5 cells in […], and divided control and treatments groups for incubation 24 hours at 37° C. with 5% CO2. The cells were collected and washed twice with phosphate-buffered saline and re-suspended at density of 10^6 cells/ml in 5 mM HEPEs buffer (pH 7.4). The cells were then re-suspended in 1 ml of buffer containing 5 mM HEPES (pH 7.6), 1 mM MgCl2 and 1 mM EDTA, then placed on ice bath. The cell membrane was disrupted by ultra sound and centrifuged at 1000×g for 10 minutes. The supernatant was ultra centrifuged at 30,000×g for 30 minutes at 4° C. The pellet was re-suspended in 0.3 ml of buffer containing 25 mM HEOES, centrifuged at 12,000×g for 5 minutes. The resulting supernatant was used for TK assay. Content of protein was determined. 10 μg of protein placed in 20 mM HEPES (pH 7.6), 15 mM MgCl2, 10 mM ZnCl2 and 5% (v/v) Nonidet P-40. After 5 minutes incubation at 25° C., the reaction was initiated by the addition of 25 μM [γ^32P] ATP (3 ci/mmol). After 10 minutes, the reaction was stopped by the addition of 20 mM cold ATP. […] Radioactivity was determined by liquid scintillation spectrometry. The net TK activity was determined after correcting for endogenous TK activity.
# gastric cancer cells = assay: Differentiation of gastric cancer cells; assay type: cell-based
# Protocol: The gastric cancer cells and normal cells were cultured in PRMI 1640 medium supplement with 10% FCS serum. Other method is similar to example 1.
# breast carcinoma MCF-7 = assay: Inhibition of tumor cell proliferation, MCF-7; assay type: cell-based; details: Homo sapiens, MCF7; 1 μg/ml, 72 hours
# Protocol: (§1) Human tumor cell lines: Hela leukemia HL-60, malignant melanocarcinoma B16, oral epidermoid carcinoma (KB), lung carcinoma (A549), breast carcinoma MCF-7, adenocarcinoma of stomach.
# (§2) Animal tumor cell lines: Walker carcinoma, LLC-WRC-256, malignant melanoma (RMMI 1846), 3T3, and S-180 sarcoma (CCRF-180). All lines were routinely cultured in the RPMI1640 medium supplemented 20% fetal calf serum. The experiment was carried out in 96 microplate, each well had 5×10^5 cells and given desired concentration of 1 μg/ml (1×10^−6 g/ml) drug. Then the plate was incubated at 37° C. in an atmosphere of humidified air enriched with 5 percent carbon dioxide for 72 hours.
# (§3) Inhibition percent rate of tumor cell proliferation was obtained according to the bellow formula. [formula]
# L-120 leukemia = assay: Survival of mice bearing leukemia (free HHT vs PK-HHT-NP); assay type: in vivo
# Text: Methods: L-120 leukemia mice, weight 20-22 g were used in the experiment. […] The dose of PK-HHT-NP is equivalent of free HHT. (All the following comparing experiments are used same methods).
# all cancer cells = assay: Inhibition of tumor cell proliferation, all cancer cells (statement); assay type: cell-based
# Protocol: as §1
# as §2, with “hours. Concentration of ELE or PK-ELE-NP is 50 ng/ml.” for “hours.”
# as §3
Compound,% of control activity (TK) (tyrosine kinase (TK); Concentration 10^−6 M) [%],% of control activity (TK) (tyrosine kinase (TK); Concentration 10^−7 M) [%],NBT (%) (gastric cancer cells),NSE (%) (gastric cancer cells),inhibition at 1 µg/mL (breast carcinoma MCF-7) [%],Survival time T/L days (L-120 leukemia; Dose 1 mg/kg),T/C (%) (L-120 leukemia; Dose 1 mg/kg),Survival time T/L days (L-120 leukemia; Dose 5 mg/kg),T/C (%) (L-120 leukemia; Dose 5 mg/kg),Percent rates of inhibition (all cancer cells)
"COC(=O)C[C@](O)(CCCC(C)(C)O)C(=O)O[C@@H]1C(OC)=C[C@]23CCCN2CCc2cc4c(cc2[C@H]13)OCO4 [HHT, Homoharringtonine]",20.8,14.8,58* %,60* %,78.5 ± 7.9,5/9,55.6,27/9,300,
Eelemene,,,,,,,,,,more than 70%
